Consider seven compounds from US9670238B1 (priority 2015, dated 2017).

Entries after “also recorded” stand apart in the source; their conditions may differ. Where two headings read alike, the source gives them in different places.

For data set [1], the system named is myeloma cells (RPMI-8226). Put plainly: Anti-myeloma activity, inhibition of cell proliferation. The format is cell-based. The note with it: RPMI-8226, 72 hours incubation, cell count. The protocol:
To the solutions containing about 4000 myeloma cells (RPMI-8226), solutions of 5′-dibenzyl phosphate derivatives of 5-azacytidines at concentrations of 0.0033 μM, 0.01 μM, 0.033 μM, 0.1 μM, 0.33 μM, 1 μM, 3.3 μM, 10 μM, 33 μM, or 100 μM were added. After incubation in RPMI-1640 (containing 10% FBS and 1% Penn-strep) for 72 hours, cell count was determined and the values of IC50 were calculated as inhibitory effect against cell proliferation (referring to Journal of Clinical Pathology, 2006, 59, 947-951).

Data set [2] deals with T1, CDA (1-146aa), Human, His-tagged, Recombinant cytidine deaminase (Homo sapiens, UniProt P32320).
T1 construct: CDA (1-146aa), Human, His-tagged; His tag; purchased ATGen
The format is in vitro ADME. The note with it: PBS with cytidine deaminase, 37° C., about 30 minutes to 1 hour. The protocol:
1 mg each of the 5′-dibenzyl phosphate derivatives of 5-azacytidines (formula (1)) was dissolved in 1 mL of acetonitrile. 10 μL of the solution was diluted with 1 mL of PBS. 10 μL of PBS solution of cytidine deaminase was added and stirred at 37° C. for about 30 minutes to 1 hour. 1 mL of acetonitrile was added to the reaction solution and separated by centrifugation. The supernatant obtained was analyzed with HPLC.
Cytidine deaminase: CDA (1-146aa), Human, His-tagged, Recombinant cytidine deaminase (ATGen)
Column: CAPCELL PAK ADME (4.6 mm×150 mm, particle size:3 μm)
Elution: A=Purified water containing 10 mM ammonium formate • B=Acetonitrile • Gradient mode: A:B=99:1→5:95/30 minutes

Data set [3] is described as follows: Non-enzymatic hydrolysis reactivity in PBS solution at 37° C. (HPLC). The format is physicochemical. The note with it: for 5-Azacytidine or 2′-deoxy-5-azacytidine (%) After 4 hours / 5-Azacytidine or 2′-deoxy-5-azacytidine (%) After 8 hours / 5-Azacytidine or 2′-deoxy-5-azacytidine (%) After 24 hours: PBS pH7.4 to 7.5, 37° C.; for Hydrolysis in PBS solution to the corresponding 5-azacytidines (in words): 37° C., up to 24 hours. On the procedure:
About 1 mg each of the obtained 5′-dibenzyl phosphate derivatives of 5-azacytidines (referring to formula (1)), such as O,O′-dibenzyl 5-azacytidylate (compound A) or O,O′-dibenzyl 2′-deoxy-5-azacytidylate (compound B) was dissolved in 1 mL of acetonitrile. 5 μL of the solution was added to 100 μL of PBS solution (pH7.4 to 7.5) and the solution was stirred at 37° C. The reactions were traced by HPLC analysis.
HPLC conditions were same as those in test example 1.

Data set [4] in a line: Partition coefficient (n-octanol/PBS). Type of data set: physicochemical. The text has this: The separation systems using a silica gel column, separation yields, data obtained from instrumental analysis and partition coefficients of 5′-dibenzyl (or diphenethyl, diphenyl) phosphate derivatives of 5-azacytidines (compounds A to H) which were synthesized according to the methods A and B are shown as below.

T1 sequence (P32320 whole entry): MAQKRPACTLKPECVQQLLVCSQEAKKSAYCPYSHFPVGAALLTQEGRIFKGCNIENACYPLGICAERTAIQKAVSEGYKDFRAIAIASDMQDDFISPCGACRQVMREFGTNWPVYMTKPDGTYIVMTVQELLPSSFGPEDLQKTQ

For the compound `Nc1ncn([C@H]2C[C@H](O)[C@@H](CO)O2)c(=O)n1` [2′-Deoxy-5-azacytidine, 2′-deoxy-5-azacytidine, reference compound], the IC50 in data set [1] (Homo sapiens) was determined as 30 nM. Moreover, the results for the “Change in HPLC pattern (peak of the starting material)” value (“Change in HPLC pattern” below) in data set [2] and in data set [2] (listed as 2′-deoxy-5-azacytidine) were “The peak of the starting material disappeared” and “disappeared completely”, respectively.

In data set [1], “O,O′-di(4-fluoro)benzyl 2′-deoxy-5-azacytidylate [compound D]” registered an IC50 of 780 nM. Moreover, the “Change in HPLC pattern” value in data set [2] is on record as “Almost no change in the peak of the starting”.

For “O,O′-dibenzyl 2′-deoxy-5-azacytidylate [compound B]”, in data set [3], the “5-Azacytidine or 2′-deoxy-5-azacytidine (%) After 4 hours” value was 8%, the “5-Azacytidine or 2′-deoxy-5-azacytidine (%) After 8 hours” value amounted to 8%, the “5-Azacytidine or 2′-deoxy-5-azacytidine (%) After 24 hours” value stood at 45% and the “Hydrolysis in PBS solution to the corresponding 5-azacytidines (in words)” value (from here on “Hydrolysis in PBS solution”) is “gradually hydrolyzed”. The “Change in HPLC pattern” value in data set [2] is on record as “Almost no change in the peak of the starting”.

“O,O′-dibenzyl 5-azacytidylate [compound A]”: in data set [3], the “5-Azacytidine or 2′-deoxy-5-azacytidine (%) After 4 hours” value is on record as 18%, the “5-Azacytidine or 2′-deoxy-5-azacytidine (%) After 8 hours” value is recorded as 35%, the “5-Azacytidine or 2′-deoxy-5-azacytidine (%) After 24 hours” value was 67% and the “Hydrolysis in PBS solution” value is reported as “gradually hydrolyzed”. Besides, 1710 nM corresponded to half-maximal inhibition in data set [1] (IC50). Also, the “Partition coefficient, Log P” value in data set [4] turned out to be 0.83. The “Change in HPLC pattern” value in data set [2] was “Almost no change in the peak of the starting”.

Take “O,O′-diphenethyl 5-azacytidylate [compound F]”: the “Hydrolysis in PBS solution” value in data set [3] is given as “almost no change was confirmed even after 24 hours; also recorded: could not be observed”. For the same compound, in data set [2], the “Change in HPLC pattern” value is listed as “Almost no change in the peak of the starting”.

Turning to “O,O′-diphenyl 2′-deoxy-5-azacytidylate [compound H]”, in data set [2], the “Change in HPLC pattern” value is “extremely stable”.

For the compound “O,O′-diphenyl 5-azacytidylate [compound G]”, the “Hydrolysis in PBS solution” value in data set [3] was “almost no change was confirmed even after 24 hours; also recorded: could not be observed”. The same compound came in with an IC50 in data set [1] of more than 100000 nM. The “Change in HPLC pattern” value in data set [2] is listed as “extremely stable”.
